Results as given in patent US5446039A, “Therapeutic benzazapine compounds” (Imperial Chemical Industries, PLC, priority 1991, dated 1995).

Key:
[1] = tested on: NMDA receptor channel complex; test: inhibition of glutamate evoked contractions of the guinea pig ileum (longitudinal muscle/myenteric plexus); format: cell-based; settings: 100 μM glutamate; test compound added 5 minutes before the glutamate
Description: (§1) The actions of compounds of formula I as antagonists at the glycine receptor of the NMDA receptor complex can be shown by standard tests such as the [^3 H]-glycine binding assay, by functional assays in vitro such as tests for measuring glutamate evoked contractions of the guinea pig ileum, and by tests in vivo such as ischemia induced by carotid occlusion in the gerbil model.
For glutamate evoked contractions of the guinea pig ileum, the methodology is as described previously (Luzzi et. al., Br. J. Pharmacol., 95, 1271-1277 (1989). The longitudinal muscle and associated myenteric plexus are removed and placed in oxygenated modified Krebs-Henseleit solution (118 mM NaCl, 4.7 mM KCl, 2.5 mM CaCl2, 1.2 mM KH2 PO4, 25 mM NaHCO3, and 11 mM glucose). Tissues are suspended on glass rods in organ baths under a resting tension of 0.5 g. After an initial depolarization with 80 mM potassium to remove possible blockade of the NMDA receptor channel complex with magnesium, twitch responses are evoked with 100 μM glutamate. Isometric mechanical responses are recorded. Tissues are equilibrated for at least 2 hours prior to addition of compounds.
A dose response curve for the effect of the unknown on the magnitude of the glutamate-evoked contractions is generated. Glutamate-evoked contractions are generated at 20 minute intervals, with the test compound added 5 minutes before the glutamate. […]

[2] = target: T1, glycine receptor of the NMDA receptor complex (Rattus norvegicus, UniProt P35439); test: [3H]-glycine binding assay at the N-methyl-D-aspartate receptor, rat neuronal synaptic membranes (cortices and hippocampi); parameters: species or system male Sprague-Dawley rats; settings: 20 nM [3H]-glycine, pH 7.1, 30 minutes at 4° C.
T1 construct: Freshly dissected cortices and hippocampi are homogenized in 0.32 M sucrose; from tissue; host or cells: synaptic membranes of cortices and hippocampi of adult male Sprague-Dawley rats
Protocol: as §1
In the [^3 H]-glycine binding assay, neuronal synaptic membranes are prepared from adult (about 250 g) male Sprague-Dawley rats. Freshly dissected cortices and hippocampi are homogenized in 0.32 M sucrose (110 mg/mL). Synaptosomes are isolated by centrifuga-tion (1000×g, 10 min), the supernatant is pelleted (20,000×g, 20 min) and resuspended in double-distilled water. The suspension was centrifuged for 20 minutes at 8,000×g. The resulting supernatant and buffy coat are washed twice (48,000×g, 10 mins, resuspension in double-deionized water). The final pellet is quickly frozen (dry iceethanol bath) under double-deionized water and stored at -70° C.
On the day of the experiment, thawed synaptic membranes are homogenized with a Brinkmann Polytron (tm, Brinkmann Instruments, Westbury, N.Y.) tissue homogenizer in 50 mM tris(hydroxymethyl)aminomethane citrate, pH 7.1. The membranes are incubated with 0. 04% Sufact-AMPS X100 (tm, Pierce, Rockford, Ill.) in buffer for 20 minutes at 37° C. and washed six times by centrifugation (48,000×g, 10 min) and resuspended in buffer. The final pellet is homogenized at 200 mg wet weight/mL of the buffer for the binding assay.
For [^3 H]-glycine binding at the N-methyl-D-aspartate receptor, 20 nM [^3 H]-glycine (40-60 Ci/mmol, New England Nuclear, Boston, Mass.) is incubated with the membranes suspended in 50 mM tris (hydroxymethyl)aminomethane citrate, pH 7.1 for 30 minutes at 4° C. Glycine, 1 mM, is used to define the nonspecific binding. […] Radioactivity is estimated by liquid scintillation counting. […]

[3] = tested on: neuronal damage in the hippocampus; test: gerbil ischemic model (bilateral carotid occlusion), hippocampal neuronal damage rating; format: in vivo, adult female Mongolian gerbils
Description: as §1
When testing in vivo using the gerbil ischemic model, adult female Mongolian gerbils (50-70 g) are anesthetized with 2 to 3% halothane. The bilateral common carotid arteries at the neck are exposed and occluded with microaneurysm clips. After 10 min (unless specified), the clips are removed and the blood flow through the carotid arteries is restored and the skin is sutured. Test compounds are administered intraperitoneally both pre- and post-occlusion, for example 45 minutes before and 5 minutes after occlusion of the carotid arteries. Sham-operated animals are treated in the same manner except that the arteries are not clamped. Gross behavioral observations along with motor activity are recorded for 2 hr on the first (24 hr) day following the occlusion. After 4 days, subjects are sacrificed (decapitation), brains are removed, fixed, sectioned and stained with hematoxylin/eosin and cresyl violet.
The brain sections are rated for neuronal damage in the hippocampus using the following rating scale:
1=slight damage (up to 25%)--restricted CA1/subiculum border
2=moderate damage (up to 50%)--obvious damage, restricted to less than half of CA1 field
3=marked damage (up to 75%)--involving greater than half of CA1 field
4=damage extending beyond CA1 field
Results can be reported as the percentage of neuroprotection afforded by a particular dose and dosing regimen.
Sections (7 micron) are evaluated from each brain. Occasionally, asymmetrical damage may be noted and the rating assigned is the average score of the two sides. The average brain damage rating score for each group is recorded, and the damage scores of the drug treated group are compared to the vehicle-treated group using Wilcoxcon-Rank Sum test.
Typical values in this test for compounds according to the invention are illustrated by the following results: for the compound of Example 1, 57% neuroprotection (relative to sham-operated control) when dosed twice with 20 mg/kg body weight intraperitoneally (ip) according to the above regimen; 44% neuroprotection when dosed with 30 mg/kg body weight ip three times at 15, 30, and 45 minutes after induction of ischemia; for the compound of Example 3, 83% neuroprotection when dosed twice with 30 mg/kg body weight ip according to the above regimen; for the compound of Example 1a, 78% neuroprotection when dosed twice with 20 mg/kg body weight ip according to the above regimen.

[4] = dosed twice with 20 mg/kg ip, pre- and post-occlusion (e.g. 45 min before and 5 min after), Example 1: relative to sham-operated control

IC50 [1] [nM]	IC50 [2] [nM]	SMILES	neuroprotection ([3]; 30 mg/kg ip three times at 15, 30, and 45 minutes after induction of ischemia) [%]	neuroprotection [3, 4] [%]	neuroprotection ([3]; dosed twice with 30 mg/kg ip, pre- and post-occlusion (e.g. 45 min before and 5 min after)) [%]
110	30	O=c1[nH]c2cc(Cl)ccc2c(=O)cc1O [Example 1, 8-Chloro-2,5-dihydro-2,5-dioxo-3-hydroxy-1H-benz[b]azepine]	44	57	
1000	97	O=c1[nH]c2cc(Br)ccc2c(=O)cc1O [Example 3, 8-bromo-2,5-dihydro-2,5-dioxo-3-hydroxy-1H-benz[b]azepine]			83
	1000	COc1cc(=O)c2ccc(Cl)cc2[nH]c1=O [Example 1a, 8-Chloro-2,5-dihydro-2,5-dioxo-3-methoxy-1H-benz[b]azepine]		78	
